Biological target: T1, F-ATP synthase subunit γ (in MsF1-αβγH65W) (Mycolicibacterium smegmatis, UniProt A0R201, H65W)
T1 construct: gene atpG; recombinant MsF1-αβγH65W complex; with F-ATP synthase subunits α and β
Assay: tryptophan fluorescence quenching titration
Format: binding

T1 sequence (A0R201 2-307 H65W): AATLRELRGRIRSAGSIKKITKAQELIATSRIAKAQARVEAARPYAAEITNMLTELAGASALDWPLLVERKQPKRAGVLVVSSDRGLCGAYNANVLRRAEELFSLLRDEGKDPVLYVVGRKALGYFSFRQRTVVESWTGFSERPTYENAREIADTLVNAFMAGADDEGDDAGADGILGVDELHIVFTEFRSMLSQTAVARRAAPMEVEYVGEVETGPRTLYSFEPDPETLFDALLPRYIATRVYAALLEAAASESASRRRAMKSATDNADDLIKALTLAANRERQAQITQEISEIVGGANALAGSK
T1 sequence (A0R202 2-548 partner): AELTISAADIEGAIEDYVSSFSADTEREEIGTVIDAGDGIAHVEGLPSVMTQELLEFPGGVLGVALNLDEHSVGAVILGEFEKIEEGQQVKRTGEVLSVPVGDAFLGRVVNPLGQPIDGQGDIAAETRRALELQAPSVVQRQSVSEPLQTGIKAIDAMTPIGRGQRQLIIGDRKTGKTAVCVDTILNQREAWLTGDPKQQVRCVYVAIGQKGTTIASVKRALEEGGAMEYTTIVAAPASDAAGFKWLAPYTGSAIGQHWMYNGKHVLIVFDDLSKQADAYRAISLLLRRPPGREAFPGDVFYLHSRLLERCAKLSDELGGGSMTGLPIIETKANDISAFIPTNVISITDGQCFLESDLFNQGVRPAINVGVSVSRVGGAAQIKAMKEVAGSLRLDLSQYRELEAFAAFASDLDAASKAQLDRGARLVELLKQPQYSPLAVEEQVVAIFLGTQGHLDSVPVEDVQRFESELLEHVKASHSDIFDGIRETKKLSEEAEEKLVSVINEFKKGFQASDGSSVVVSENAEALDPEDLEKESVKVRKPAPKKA
T1 sequence (A0R200 2-475 partner): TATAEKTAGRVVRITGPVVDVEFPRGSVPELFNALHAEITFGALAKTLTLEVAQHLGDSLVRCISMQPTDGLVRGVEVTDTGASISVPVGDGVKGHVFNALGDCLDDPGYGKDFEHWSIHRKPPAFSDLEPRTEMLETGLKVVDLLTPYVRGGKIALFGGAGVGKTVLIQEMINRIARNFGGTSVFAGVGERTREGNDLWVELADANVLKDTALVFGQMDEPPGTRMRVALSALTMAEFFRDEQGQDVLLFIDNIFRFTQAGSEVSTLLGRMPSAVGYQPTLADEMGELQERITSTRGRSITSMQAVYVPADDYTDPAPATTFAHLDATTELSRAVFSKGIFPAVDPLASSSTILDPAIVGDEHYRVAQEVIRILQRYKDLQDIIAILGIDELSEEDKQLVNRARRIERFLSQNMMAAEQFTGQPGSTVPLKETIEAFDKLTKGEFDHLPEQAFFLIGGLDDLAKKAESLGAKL

How did the Kd turn out when `CCNc1cc(C)nc(Nc2ccc3nc(-c4ccc(Cl)cc4)[nH]c3c2)n1` [GaMF1.39] was run?
Its Kd is 0.7 ± 0.09 µM.

— PMC10715162 (Microbiology Spectrum, 2023)
